Here are results for six compounds from BindingDB's records for doi:10.1016/j.ejmech.2014.01.032 (University of Milan, 2014).

The assay is described as follows: Inhibition of acetylcholinesterase in rat brain homogenate after 15 mins by Ellman assay. A general note: DTNB colorimetry detects thiols as they appear.
One may read the IC50 as the concentration that inhibits the measured activity by half. A higher IC50 goes with weaker potency. As for `C[N+](C)(CC#CCOC1=NOCC1)CCCCCCCC[N+](C)(C)CCCN1C(=O)c2ccccc2C1=O`, the half-inhibitory concentration (IC50) was determined as 19.5 µM.
Regarding `C[N+](C)(CC#CCOC1=NOCC1)CCCCCCCC[N+](C)(C)CCCN1C(=O)c2cccc3cccc(c23)C1=O`, the half-maximal inhibitory concentration (IC50) worked out at 10 µM.
On to `C[N+](C)(CC#CCOC1=NOCC1)CCCCCC[N+](C)(C)CCCN1C(=O)c2cccc3cccc(c23)C1=O`, for which half-maximal inhibition (IC50) required 10.2 µM.
Compound `CC(C)(CN1C(=O)c2cccc3cccc(c23)C1=O)C[N+](C)(C)CCCCCC[N+](C)(C)CCCN1C(=O)c2ccccc2C1=O` [Naphmethonium] yielded an IC50 of 41.7 µM.
The compound `C[N+](C)(CC#CCOC1=NOCC1)CCCCCC[N+]1(C)CCC(N2C(=O)c3cccc4cccc(c34)C2=O)CC1` (stereo unspecified) yielded an IC50 of 22.9 µM.
In the case of `C[N+](C)(CC#CCOC1=NOCC1)CCCCCCC[N+](C)(C)CCCN1C(=O)c2ccccc2C1=O` it was 31.6 µM.
